EC50 and IC50 data for 23 compounds are collected here from US10752588B2 (The Broad Institute, Inc., priority 2014, dated 2020).

For assay [1], the target named is T1, human D2R/β-arrestin (Homo sapiens (Human), UniProt P14416). The assay is described as follows: Gi/cAMP agonist assay (Lance Ultra cAMP, Forskolin). The assay is classed as cell-based. Conditions: CHO-K1 cell line expressing human D2R/β-arrestin. The method, then:
(§1) The assays can be performed using proper detection reagents either prepared using routine methods known in the art or commercially available (e.g., PE Lance Ultra cAMP kit (TRF0263)). Cells are grown to the necessary confluence and then detached. The cells are then centrifuged, washed, resuspended, and seeded into a container (e.g., 384-well plate). The cells are incubated (e.g., at 37° C., 5% CO2) for the appropriate period of time (e.g., 24 hours), before various compounds (e.g., a compound of the invention or a control compound) are added to the cells. Afterwards, cAMP inducing agents (e.g., Forskolin) are added to and incubated with the cells before detection reagents (e.g., a cAMP antibody, such as ULight-anti-cAMP solution) are added to the cells. Read-out (e.g., luminescence, or fluorescence) is detected using standard equipment.
Compounds were pin-transferred (100 nL) to the cells, and incubated for 10 min. at 37° C. […] Eu-cAMP tracer solution (100, PerkinElmer, […] in 17.64 ml kit buffer) and ULight-anti-cAMP solution (100, 120 μL antibody in 17.88 ml kit buffer) was then added to each well.

In assay [2] the target is T1, human D2R/β-arrestin. The assay is described as follows: cell-based. The conditions noted are these: β-arrestin Antagonist, CHO-K1 cell line expressing human D2R/β-arrestin; quinpirole used as agonist.
For assay [3], the target named is T1, human D2R/β-arrestin. Nature of the assay: β-Arrestin agonist assay (PathHunter). Type of assay: cell-based. The conditions noted are these: CHO-K1 cell line expressing human D2R/β-arrestin. The procedure: as §1, with “PathHunter® β-Arrestin Detecting Kit (DiscoveRX)).” for “PE Lance Ultra cAMP kit (TRF0263)).”, “After incubation of the cells” for “Afterwards, cAMP inducing agents (e.g., Forskolin) are added to and incubated”, “compounds,” for “cells before”, “buffer containing Emerald II: Galactor-Star” for “cAMP antibody, such”, “provided DiscoveRX)” for “ULight-anti-cAMP solution)”, “The read-out” for “Read-out”
The detection reagent (9.6 μL, Buffer:Emerald II:Galactor-Star in a 19:5:1 ratio, i.e., 14.06 mL:3.7 mL:0.74 mL=18.5 mL) was then added to the agonist plates.

Assay [4] has as its target T1, human D2R/β-arrestin. Nature of the assay: cell-based. The conditions noted are these: cAMP Antagonist, CHO-K1 cell line expressing human D2R/β-arrestin; quinpirole used as agonist.
Description: The detection reagents are then added, and the read-out is detected.
Cells were prepared for assays by growing cultures for up to 2 weeks (from about 6-20 passages). A vial of frozen cells was thawed in a water bath held at 37° C. The cells were then transferred into a 50 ml tube with 10 ml growth media. The vial was rinsed with growth media and the contents transferred to the 50 ml tube. The 50 ml tube was centrifuged at 1200 rpm for 5 minutes at room temperature. […] When the cells reached about 90% confluence (approximately 3 days between passages), the cells were passaged and used for either the agonist or antagonist assays as described below.
The cells were prepared for Gi/cAMP assays as described above. The assays were performed using a PE Lance Ultra cAMP kit (TRF0263). The cells were grown on 225 mm dishes, then washed once with 1×PBS (Cellgro) before digestion with 2.5 ml 1× Detachment reagent (DRX 92-0009) for about 2 minutes. PBS (20 ml) was then added to the plate, and the cells were transferred to a 50 ml centrifuge tube, and centrifuged at room temperature using BD Dynac III, at 1200 rpm for 5 minutes. […] The plates were then incubated at room temperature for about 30 minutes before addition of Eu-cAMP tracer solution (100, PerkinElmer) and then ULight-anti-cAMP solution (100) to each well.

SMILES strings stand for the structures.

Broadly, the EC50 is the midpoint of the concentration-response curve. Read a low EC50 as a more potent agent. For orientation: IC50 means the concentration at which inhibition is half-maximal. A higher IC50 goes with a need for much substance.

T1 sequence (P14416 whole entry): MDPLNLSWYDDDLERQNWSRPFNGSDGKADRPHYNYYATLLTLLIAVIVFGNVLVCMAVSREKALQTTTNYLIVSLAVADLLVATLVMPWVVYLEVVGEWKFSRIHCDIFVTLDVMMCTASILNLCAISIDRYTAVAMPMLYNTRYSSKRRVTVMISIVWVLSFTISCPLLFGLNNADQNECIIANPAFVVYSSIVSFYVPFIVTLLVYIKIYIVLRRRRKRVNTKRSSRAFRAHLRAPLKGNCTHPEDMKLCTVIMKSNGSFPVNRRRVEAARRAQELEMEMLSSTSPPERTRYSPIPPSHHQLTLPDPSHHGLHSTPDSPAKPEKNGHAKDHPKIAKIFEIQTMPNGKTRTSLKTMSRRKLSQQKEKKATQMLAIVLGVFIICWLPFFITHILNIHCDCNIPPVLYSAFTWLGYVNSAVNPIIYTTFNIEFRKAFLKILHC

`COc1cccc(C(NC(=O)C2CCN(CCOc3ccc(F)cc3F)CC2)c2ccccn2)c1` (single isomer, unassigned) [Compound 145b, 1-(2-(2,4-difluorophenoxy)ethyl)-N-((3-methoxyphenyl)(pyridin-2-yl)methyl)piperidine-4-carboxamide]: the EC50 at human D2R/β-arrestin [1] and on human D2R/β-arrestin [3] was greater than 30 µM each time. Moreover, the results for the IC50 at human D2R/β-arrestin [2] and at human D2R/β-arrestin [4] were 1 to 10 µM and 0.1 to 1 µM, respectively.
`O=C(NC(c1ccc(Cl)cc1)c1ccccn1)C1CCN(CCOc2cccc(Cl)c2)CC1` (centres unmarked) [Compound 1, 1-(2-(3-chlorophenoxy)ethyl)-N-((4-chlorophenyl)(pyridin-2-yl)methyl)piperidine-4-carboxamide]: the EC50 on human D2R/β-arrestin [1] was less than 0.1 µM; at human D2R/β-arrestin [3], greater than 30 µM. For the same compound, the IC50 on human D2R/β-arrestin [2] was 0.1 to 1 µM; on human D2R/β-arrestin [4], greater than 30 µM.
For `O=C(NC(c1ccc(Cl)cc1)c1ccccn1)C1CCN(CCOc2ccc(Cl)cc2)CC1` (centres unmarked) [Compound 2, 1-(2-(4-chlorophenoxy)ethyl)-N-((4-chlorophenyl)(pyridine-2-yl)methyl) piperidine-4-carboxamide], the figures for the EC50 at human D2R/β-arrestin [1] and on human D2R/β-arrestin [3] were 0.1 to 1 µM and greater than 30 µM, respectively. Besides, the figures for the IC50 on human D2R/β-arrestin [2] and on human D2R/β-arrestin [4] were 1 to 10 µM and greater than 30 µM, respectively.
As for `O=C(NC(c1ccc(Cl)cc1)c1ccccn1)C1CCN(CCOc2cccc(F)c2)CC1` (centres unmarked) [Compound 4], the EC50 at human D2R/β-arrestin [1] was less than 0.1 µM; on human D2R/β-arrestin [3], greater than 30 µM. The IC50 was 0.1 to 1 µM on human D2R/β-arrestin [2] and greater than 30 µM at human D2R/β-arrestin [4].
In the case of `O=C(NC(c1ccc(Cl)cc1)c1ccccn1)C1CCN(CCn2ccccc2=O)CC1` (centres unmarked) [Compound 9, N((4-chlorophenyl)(pyridin-2-yl)methyl)-1-(2-(2-oxopyridin-1(2H)-yl)ethyl) piperidine-4-carboxamide], the EC50 on human D2R/β-arrestin [1] and at human D2R/β-arrestin [3] was greater than 30 µM in each case. The concentration for half-maximal inhibition (IC50) at human D2R/β-arrestin [2] and at human D2R/β-arrestin [4] was 1 to 10 µM each time.
In the case of `COc1cccc(OCCN2CCC(C(=O)NC(c3ccc(Cl)cc3)c3ccccn3)CC2)c1` (centres unmarked) [Compound 12, N-((4-chlorophenyl) (pyridin-2-yl)methyl)-1-(2-(3-methoxyphenoxy)ethyl) piperidine-4-carboxamide], the EC50 at human D2R/β-arrestin [1] was 10 to 30 µM; on human D2R/β-arrestin [3] it was greater than 30 µM. The IC50 was in the range of 1 to 10 µM on human D2R/β-arrestin [2] and 0.1 to 1 µM at human D2R/β-arrestin [4].
Turning to `COc1ccc(OCCN2CCC(C(=O)NC(c3ccc(Cl)cc3)c3ccccn3)CC2)cc1` (centres unmarked) [Compound 13, N-((4-chlorophenyl)(pyridin-2-yl)methyl)-1-(2-(4-methoxyphenoxy)ethyl) piperidine-4-carboxamide], the EC50 is 1 to 10 µM on human D2R/β-arrestin [1] and greater than 30 µM on human D2R/β-arrestin [3]. In addition, the figures for the IC50 at human D2R/β-arrestin [2] and at human D2R/β-arrestin [4] were 1 to 10 µM and greater than 30 µM, respectively.
`O=C(NC(c1ccc(Cl)cc1)c1ccccn1)C1CCN(CCOC2CCCCC2)CC1` (centres unmarked) [Compound 17, N-((4-chlorophenyl) (pyridin-2-yl)methyl)-1-(2-(cyclohexyloxy)ethyl) piperidine-4-carboxamide]: the EC50 at human D2R/β-arrestin [1] and at human D2R/β-arrestin [3] was greater than 30 µM throughout. Also, the IC50 lay in the range of 1 to 10 µM at human D2R/β-arrestin [2] and 0.1 to 1 µM at human D2R/β-arrestin [4].
As for `O=C(NC(c1ccc(Cl)cc1)c1ccccn1)C1CCN(CCOc2ccc3ncsc3c2)CC1` (centres unmarked) [Compound 19, 1-(2-(Benzo[d]thiazol-6-yloxy)ethyl)-N-((4-chlorophenyl)(pyridin-2-yl)methyl) piperidine-4-carboxamide], the EC50 on human D2R/β-arrestin [1] is 0.1 to 1 µM; at human D2R/β-arrestin [3], greater than 30 µM. Further, the IC50 at human D2R/β-arrestin [2] was 1 to 10 µM; on human D2R/β-arrestin [4] it was greater than 30 µM.
With `COc1cccc(C(NC(=O)C2CCN(CCOc3ccccc3C(F)(F)F)CC2)c2ccccn2)c1` (centres unmarked) [Compound 20, N-((3-methoxyphenyl)(pyridin-2-yl)methyl)-1-(2-(2-(trifluoromethyl)phenoxy)ethyl) piperidine-4-carboxamide], the EC50 on human D2R/β-arrestin [1] and at human D2R/β-arrestin [3] was greater than 30 µM each time. The values for the IC50 at human D2R/β-arrestin [2] and at human D2R/β-arrestin [4] were 0.1 to 1 µM and less than 0.1 µM, respectively.
Turning to `COc1cccc(C(NC(=O)C2CCN(CCOc3ccccc3Cl)CC2)c2ccccn2)c1` (centres unmarked) [Compound 21, 1-(2-(2-chlorophenoxy)ethyl)-N-((3-methoxyphenyl)(pyridin-2-yl)methyl) piperidine-4-carboxamide], the EC50 at human D2R/β-arrestin [1] and on human D2R/β-arrestin [3] was greater than 30 µM in each case. Besides, the IC50 on human D2R/β-arrestin [2] and at human D2R/β-arrestin [4] was 0.1 to 1 µM throughout.
With `COc1cccc(C(NC(=O)C2CCN(CCOc3ccccc3F)CC2)c2ccccn2)c1` (centres unmarked) [Compound 22, 1-(2-(2-fluorophenoxy)ethyl)-N-((3-methoxyphenyl)(pyridin-2-yl)methyl) piperidine-4-carboxamide], the EC50 on human D2R/β-arrestin [1] and on human D2R/β-arrestin [3] was greater than 30 µM in each case. Moreover, the IC50 on human D2R/β-arrestin [2] and on human D2R/β-arrestin [4] was 0.1 to 1 µM in each case.
On to `O=C(NC(c1ccccn1)c1ccccc1Cl)C1CCN(CCOc2ccccc2)CC1` (centres unmarked) [Compound 24], for which the EC50 at human D2R/β-arrestin [1] is 1 to 10 µM; on human D2R/β-arrestin [3] it was greater than 30 µM. Moreover, the IC50 is 1 to 10 µM at human D2R/β-arrestin [2] and greater than 30 µM at human D2R/β-arrestin [4].
On to `O=C(NC(c1cccnc1)c1ccccn1)C1CCN(CCOc2ccccc2)CC1` (centres unmarked) [Compound 29, 1-(2-phenoxyethyl)-N-(pyridin-2-yl(pyridin-3-yl)methyl)piperidine-4-carboxamide], for which the EC50 on human D2R/β-arrestin [1] is 0.1 to 1 µM; at human D2R/β-arrestin [3], greater than 30 µM. Further, the IC50 was 1 to 10 µM at human D2R/β-arrestin [2] and greater than 30 µM on human D2R/β-arrestin [4].
On to `O=C(NC(c1ccccn1)c1ccccn1)C1CCN(CCOc2ccccc2)CC1` [Compound 30, N-(di(pyridin-2-yl)methyl)-1-(2-phenoxyethyl)piperidine-4-carboxamide], for which the EC50 is 1 to 10 µM at human D2R/β-arrestin [1] and greater than 30 µM on human D2R/β-arrestin [3]. Also, the IC50 at human D2R/β-arrestin [2] is 10 to 30 µM; on human D2R/β-arrestin [4], greater than 30 µM.
Turning to `O=C(NC(c1ccccn1)c1ccccc1C(F)(F)F)C1CCN(CCOc2ccccc2)CC1` (centres unmarked) [Compound 33, 1-(2-phenoxyethyl)-N-(pyridin-2-yl(2-(trifluoromethyl)phenyl)methyl) piperidine-4-carboxamide], the EC50 on human D2R/β-arrestin [1] is 1 to 10 µM; at human D2R/β-arrestin [3] it was greater than 30 µM. Further, the IC50 at human D2R/β-arrestin [2] is 10 to 30 µM; at human D2R/β-arrestin [4] it was greater than 30 µM.
With `COc1ccc(C(NC(=O)C2CCN(CCOc3ccccc3)CC2)c2ccccn2)cc1` (centres unmarked) [Compound 34], the EC50 at human D2R/β-arrestin [1] is 0.1 to 1 µM; at human D2R/β-arrestin [3] it was greater than 30 µM. The IC50 at human D2R/β-arrestin [2] is 1 to 10 µM; on human D2R/β-arrestin [4] it was greater than 30 µM.
For the compound `COc1ccccc1C(NC(=O)C1CCN(CCOc2ccccc2)CC1)c1ccccn1` (centres unmarked) [Compound 36, N((2-methoxyphenyl)(pyridin-2-yl)methyl)-1-(2-phenoxyethyl) piperidine-4-carboxamide], the EC50 at human D2R/β-arrestin [1] and at human D2R/β-arrestin [3] was greater than 30 µM in each case. The figures for the IC50 on human D2R/β-arrestin [2] and at human D2R/β-arrestin [4] were 10 to 30 µM and greater than 30 µM, respectively.
On to `CC(C)C(NC(=O)C1CCN(CCOc2ccccc2)CC1)c1ccccn1` (centres unmarked) [Compound 38, N-(2-methyl-1-(pyridin-2-yl)propyl)-1-(2-phenoxyethyl)piperidine-4-carboxamide], for which the half-maximal effective concentration (EC50) was 1 to 10 µM on human D2R/β-arrestin [1] and greater than 30 µM on human D2R/β-arrestin [3]. The IC50 on human D2R/β-arrestin [2] was 1 to 10 µM; at human D2R/β-arrestin [4], greater than 30 µM.
On to `COc1ccccc1C(NC(=O)C1CCN(CCOc2ccccc2)CC1)c1ccc(Cl)cc1` (centres unmarked) [Compound 43], for which the EC50 on human D2R/β-arrestin [1] is 1 to 10 µM; at human D2R/β-arrestin [3] it was greater than 30 µM. Moreover, the half-inhibitory concentration (IC50) was 1 to 10 µM at human D2R/β-arrestin [2] and greater than 30 µM on human D2R/β-arrestin [4].
Turning to `COc1ccc(C(NC(=O)C2CCN(CCOc3ccccc3)CC2)c2ccc(Cl)cc2)cc1` (centres unmarked) [Compound 44], the EC50 on human D2R/β-arrestin [1] and on human D2R/β-arrestin [3] was greater than 30 µM throughout. Besides, the IC50 on human D2R/β-arrestin [2] fell in the range of 1 to 10 µM; at human D2R/β-arrestin [4], 10 to 30 µM.
For the compound `O=C(NC(c1ccc(F)cc1)c1ccc(F)cc1)C1CCN(CCOc2ccccc2)CC1` [Compound 47, N-(bis(4-fluorophenyl)methyl)-1-(2-phenoxyethyl)piperidine-4-carboxamide], the EC50 at human D2R/β-arrestin [1] and at human D2R/β-arrestin [3] was greater than 30 µM each time. In addition, the 50% inhibitory concentration (IC50) on human D2R/β-arrestin [2] was in the range of 1 to 10 µM; at human D2R/β-arrestin [4], 0.1 to 1 µM.
In the case of `O=C(NC(c1ccccc1F)c1ccccc1F)C1CCN(CCOc2ccccc2)CC1` [Compound 48, N-(bis(2-fluorophenyl)methyl)-1-(2-phenoxyethyl)piperidine-4-carboxamide], the EC50 at human D2R/β-arrestin [1] is 1 to 10 µM; at human D2R/β-arrestin [3], greater than 30 µM. The IC50 at human D2R/β-arrestin [2] was 1 to 10 µM; on human D2R/β-arrestin [4], greater than 30 µM.
